Measured values taken from article PMC6915683, “Characterization of Maltase and Sucrase Inhibitory Constituents from Rhodiola crenulata” (Foods, 2019).
“Also recorded” adds a separate entry of the source. Where two headings read alike, the source gives them in different places.

Columns and labels:
maltase [1] = target: T1, maltase (Saccharomyces cerevisiae, UniProt P53341); test: Maltase inhibitory activity assay (maltose substrate, glucose oxidase method); format: biochemical; conditions: for inhibition at 10 µM: read-out: maltase inhibition
T1 construct: purchased Sigma Chemical Co. (St. Louis, MO, USA)
T1 sequence (P53341 whole entry): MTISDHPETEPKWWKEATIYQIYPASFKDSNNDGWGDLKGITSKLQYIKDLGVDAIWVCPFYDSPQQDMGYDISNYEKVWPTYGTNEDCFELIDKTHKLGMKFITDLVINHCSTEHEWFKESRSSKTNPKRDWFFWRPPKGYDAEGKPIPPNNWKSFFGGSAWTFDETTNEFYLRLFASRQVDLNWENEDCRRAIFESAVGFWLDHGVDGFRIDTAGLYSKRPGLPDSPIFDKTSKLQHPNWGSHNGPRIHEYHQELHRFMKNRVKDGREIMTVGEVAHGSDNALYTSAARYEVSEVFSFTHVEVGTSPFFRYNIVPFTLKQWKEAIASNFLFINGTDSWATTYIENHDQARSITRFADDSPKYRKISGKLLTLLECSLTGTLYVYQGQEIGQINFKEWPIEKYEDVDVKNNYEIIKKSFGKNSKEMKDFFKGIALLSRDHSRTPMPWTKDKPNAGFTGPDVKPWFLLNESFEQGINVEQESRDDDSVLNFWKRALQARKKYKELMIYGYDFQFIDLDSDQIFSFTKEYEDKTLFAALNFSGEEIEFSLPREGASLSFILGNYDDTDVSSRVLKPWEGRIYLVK
Method: (§1) Maltase activity was characterized using the methods outlined by Adisakwattana et al. with slight modifications. Maltose and maltase derived from Saccharomyces cerevisiae (S. cerevisiae) were obtained from Sigma Chemical Co. (St. Louis, MO, USA). A reaction mixture was formulated from 30 μL of maltose (86.3 mM) with 20 μL of maltase (0.33 units/mL) and 50 μL of phosphate buffer (100 mM, pH 7.0). The mixture was incubated at 37 °C for 10 min and then at 100 °C for a further 10 min to stop the reaction. The glucose concentrations released by the reaction mixture were determined via the glucose oxidase method (glucose assay kit, Sigma Chemical Co., St. Louis, MO, USA) using a VersaMax microplate reader (Molecular Devices Corporation, Sunnyvale, CA, USA) at an absorbance wavelength of 540 nm.
All of the samples were assessed in terms of maltase inhibitory activity under a range of concentrations (0–30 μM). Maltase inhibitory activity was evaluated by dissolving the samples directly in phosphate buffer solution (100 mM, pH 7.0). Note that each sample was assayed in triplicate. Inhibitory activity was estimated in terms of IC50 values based on percent inhibition, as follows:percent inhibition (%) = [(Awithout sample − Awith sample)] × 100%/Awithout sample(1)

sucrase [2] = test: Sucrase inhibitory activity assay (sucrose substrate, glucose oxidase method); format: biochemical, Leuconostoc mesenteroides; conditions: for IC50: L. mesenteroides sucrase, sucrose substrate, pH 7.0, 37 °C, mean ± SD; for sucrase inhibition: at a concentration of 20 µM
Method: Estimates of sucrase activity were obtained using the method outlined by […] et al. with slight modifications. Sucrose and sucrase derived from Leuconostoc mesenteroides were obtained from Sigma Chemical Co. (St. Louis, MO, USA). […] The mixtures were incubated at 37 °C for 60 min and then at 100 °C for a further 10 min to stop the reaction. The glucose concentrations released from the reaction mixtures were estimated via the glucose oxidase method (glucose assay kit, Sigma Chemical Co., St. Louis, MO, USA) using a VersaMax microplate reader (Molecular Devices Corporation, Sunnyvale, CA, USA) at an absorbance wavelength of 540 nm. […] All samples were assessed in terms of sucrase inhibitory activity under a range of concentrations (0-50 μM).

maltase [3] = target: T1, maltase; test: Maltase inhibition kinetics (Lineweaver–Burk and Dixon plots); format: biochemical; conditions: for Ki’ maltase (uncompetitive inhibition constant): binding to maltase–maltose complex; for mode of inhibition toward maltase: Lineweaver–Burk / Dixon plots
Method: as §1
Kinetics assays were conducted using substrates of various concentrations with and without inhibitors. Maltose was used as a substrate for maltase, where the initial velocity was expressed as the rate of absorbance at 540 nm per min. Sucrose was used as a substrate for sucrase, where the initial velocity was expressed as the rate of absorbance at 540 nm per 18 min. Dixon plot analysis was used to determine the competitive inhibition constant (Ki) and uncompetitive inhibition constant (Ki’). Ki was used as the equilibrium constant for the inhibition of binding to maltase and sucrase, whereas Ki’ was used as the equilibrium constant for the inhibition of binding to maltase–maltose and sucrase–sucrose complexes. The Ki and Ki’ values of the maltase inhibitors were derived from Dixon plots in accordance with the methods described by Cornish-Bowden.

sucrase [4] = test: Sucrase inhibition kinetics (Lineweaver–Burk and Dixon plots); format: biochemical, Leuconostoc mesenteroides; conditions: for Ki / Ki’ sucrase (uncompetitive inhibition constant): Dixon plot; for Ki / mode of inhibition toward sucrase: sucrose substrate; for Ki: binding to sucrase, read-out: Ki sucrase (competitive inhibition constant); for mode of inhibition toward sucrase: Lineweaver–Burk / Dixon plots; for Ki’ sucrase (uncompetitive inhibition constant): binding to sucrase–sucrose complex
Method: Estimates of sucrase activity were obtained using the method outlined by […] et al. with slight modifications. Sucrose and sucrase derived from Leuconostoc mesenteroides were obtained from Sigma Chemical Co. (St. Louis, MO, USA). […] The mixtures were incubated at 37 °C for 60 min and then at 100 °C for a further 10 min to stop the reaction. The glucose concentrations released from the reaction mixtures were estimated via the glucose oxidase method (glucose assay kit, Sigma Chemical Co., St. Louis, MO, USA) using a VersaMax microplate reader (Molecular Devices Corporation, Sunnyvale, CA, USA) at an absorbance wavelength of 540 nm. […] Kinetics assays were conducted using substrates of various concentrations with and without inhibitors. Maltose was used as a substrate for maltase, where the initial velocity was expressed as the rate of absorbance at 540 nm per min. Sucrose was used as a substrate for sucrase, where the initial velocity was expressed as the rate of absorbance at 540 nm per 18 min. Dixon plot analysis was used to determine the competitive inhibition constant (Ki) and uncompetitive inhibition constant (Ki'). Ki was used as the equilibrium constant for the inhibition of binding to maltase and sucrase, whereas Ki' was used as the equilibrium constant for the inhibition of binding to maltase-maltose and sucrase-sucrose complexes.

α-glucosidase = system: α-glucosidase; set-up: method as in doi:10.1016/j.foodres.2014.01.029; conditions: cited from earlier work; for Ki / Ki’ α-glucosidase: previous results
rat maltase [5] = target: rat maltase; set-up: method as in PMID 28914528; conditions: cited from earlier work
rat sucrase = target: rat sucrase; set-up: method as in PMID 28914528; conditions: cited from earlier work
[6] = set-up: method as in PMID 18756586; conditions: daily consumption for three years, compared to control group not consuming acarbose; cited from earlier work
sucrose in rats = system: sucrose in rats; set-up: method as in PMID 20629879; conditions: read-out: IC50 against sucrose in rats; cited from earlier work
maltase [7] = system: maltase; set-up: method as in PMID 19772492; conditions: kinetic analysis; cited from earlier work
sucrase [8] = system: sucrase; set-up: method as in PMID 21765605; conditions: kinetics analysis; cited from earlier work
maltase [9] = system: maltase; set-up: method as in PMID 32218677; conditions: maltose substrate, cited from earlier work
sucrase [10] = system: sucrase; set-up: method as in PMID 19772492; conditions: cited from earlier work
maltase [11] = target: maltase; set-up: method as in PMID 15826043; conditions: isolated from Siraitia grosvenori; read-out: IC50 maltase inhibitory activity; cited from earlier work
rat maltase [12] = target: rat maltase; set-up: method as in doi:10.1016/j.foodchem.2010.03.088; conditions: read-out: IC50 against rat maltase; cited from earlier work
rat sucrose = system: rat sucrose; set-up: method as in doi:10.1016/j.foodchem.2010.03.088; conditions: read-out: IC50 against rat sucrose; cited from earlier work
sucrase [13] = system: sucrase; set-up: method as in PMID 15895684; conditions: sucrose substrate, cited from earlier work
[14] = S. cerevisiae maltase, maltose substrate, pH 7.0, 37 °C, mean ± SD, triplicate, read-out: IC50 Maltase

O=C(OC1Cc2c(O)cc(O)c(C3c4c(O)cc(O)cc4OC(c4ccc(O)c(O)c4)C3O)c2OC1c1ccc(O)c(O)c1)c1cc(O)c(O)c(O)c1 (stereo not drawn) [B2-3’-O-gallate, epicatechin-(4β,8)-epicatechingallate]
IC50 (maltase [1]; [14]): 1.73 ± 1.37 µM
inhibition at 10 µM (maltase [1]): 90.7%
IC50 (sucrase [2]): 6.91 ± 3.41 µM
sucrase inhibition (sucrase [2]): 84.6%
Ki (maltase [3]; Dixon plot, maltose substrate, binding to maltase, read-out: Ki maltase (competitive inhibition constant)): 1.99 ± 0.02 µM
Ki’ maltase (uncompetitive inhibition constant) (maltase [3]; Dixon plot): 3.73 ± 0.08 µM
mode of inhibition toward maltase (maltase [3]; maltose substrate): mixed-type inhibition; also recorded: mixed-competitive inhibitors
Ki (sucrase [4]): 6.05 ± 0.04 µM
mode of inhibition toward sucrase (sucrase [4]): mixed-type inhibition; also recorded: mixed-competitive inhibitors
mode of inhibition of α-glucosidase (α-glucosidase): mixed-competitive inhibitors
Ki (α-glucosidase): 0.3 ± 0.03 µM
Ki’ α-glucosidase (α-glucosidase): 1.42 ± 0.01 µM

Oc1cc(O)c2c(c1)O[C@H](c1ccc(O)c(O)c1)[C@H](O)C2 [EC, epicatechin]
IC50 (maltase [1]; [14]): 6.25 ± 1.84 µM
inhibition at 10 µM (maltase [1]): 66.3%
IC50 (sucrase [2]): 18.9 ± 3.66 µM
sucrase inhibition (sucrase [2]): 51.4%
Ki’ maltase (uncompetitive inhibition constant) (maltase [3]; Dixon plot): 18.88 ± 0.22 µM
mode of inhibition toward maltase (maltase [3]; maltose substrate): mixed-type inhibition; also recorded: mixed-competitive inhibitors
Ki (maltase [3]; read-out: Ki maltase (competitive inhibition constant)): 7.02 ± 0.26 µM
Ki (sucrase [4]): 13.7 ± 0.15 µM
Ki’ sucrase (uncompetitive inhibition constant) (sucrase [4]): 21.36 ± 0.30 µM
mode of inhibition toward sucrase (sucrase [4]): mixed-type inhibition; also recorded: mixed-competitive inhibitors

O=C(O[C@@H]1Cc2c(O)cc(O)cc2O[C@@H]1c1ccc(O)c(O)c1)c1cc(O)c(O)c(O)c1 [ECG, epicatechin gallate]
IC50 (maltase [1]): 3.64 ± 2.99 µM
inhibition at 10 µM (maltase [1]): 87.7%
IC50 (sucrase [2]): 18.3 ± 3.99 µM
sucrase inhibition (sucrase [2]): 56.1%
Ki (maltase [3]): 3.14 ± 0.04 µM
Ki’ maltase (uncompetitive inhibition constant) (maltase [3]; Dixon plot): 6.38 ± 0.04 µM
mode of inhibition toward maltase (maltase [3]; maltose substrate): mixed-type inhibition; also recorded: mixed-competitive inhibitors
Ki (sucrase [4]): 8.58 ± 0.08 µM
Ki’ sucrase (uncompetitive inhibition constant) (sucrase [4]): 15.74 ± 0.32 µM
mode of inhibition toward sucrase (sucrase [4]): mixed-type inhibition; also recorded: mixed-competitive inhibitors
mode of inhibition of α-glucosidase (α-glucosidase): mixed-competitive inhibitors
Ki (α-glucosidase): 0.21 ± 0.04 µM
Ki’ α-glucosidase (α-glucosidase): 2.34 ± 0.06 µM

C[C@H]1O[C@H](O[C@H]2[C@H](O)[C@@H](O)[C@@H](O[C@H]3[C@H](O)[C@@H](O)C(O)O[C@@H]3CO)O[C@@H]2CO)[C@H](O)[C@@H](O)[C@@H]1N[C@H]1C=C(CO)[C@@H](O)[C@H](O)[C@H]1O (stereo partly shown) [acarbose]
IC50 (rat maltase [5]): 0.42 ± 0.02 µM
IC50 (rat sucrase): 12.3 ± 0.6 µM
reduction of the risk of developing type 2 diabetes [6]: 6%

Oc1cc(COCc2cc(O)c(O)c(Br)c2Br)c(Br)c(Br)c1O [bis (2,3-dibromo-4,5-dihydroxybenzyl)ether]
IC50 (sucrose in rats): 1000 ± 30 µM

O=C(O)/C=C/c1ccc(O)c(O)c1 [caffeic acid]
mode of inhibition of maltase (maltase [7]): mixed-inhibition manner

C[C@@H]1O[C@@H](OC[C@H]2O[C@@H](Oc3cc4c(O)cc(O)cc4[o+]c3-c3ccc(O)c(O)c3)[C@H](O)[C@@H](O)[C@@H]2O)[C@H](O)[C@H](O)[C@H]1O [cyanidin-3-rutinoside]
mode of inhibition of sucrase (sucrase [8]): mixed-type manner

O=C(O[C@@H]1Cc2c(O)cc(O)cc2O[C@@H]1c1cc(O)c(O)c(O)c1)c1cc(O)c(O)c(O)c1 [epigallocatechin gallate]
IC50 (rat maltase [5]): 14 ± 2 µM
IC50 (rat sucrase): 950 ± 86 µM
mode of inhibition of maltase (maltase [9]; Lineweaver–Burk plot): competitive inhibitor
Ki (maltase [9]; read-out: Ki maltase calculated from a Dixon plot): 5.93 ± 0.26 µM

COc1cc(/C=C/C(=O)O)ccc1O [ferulic acid]
mode of inhibition of maltase (maltase [7]): mixed-inhibition manner
mode of inhibition of sucrase (sucrase [10]): mixed-type manner

COc1ccc(/C=C/C(=O)O)cc1O [isoferulic acid]
mode of inhibition of maltase (maltase [7]): mixed-inhibition manner
mode of inhibition of sucrase (sucrase [10]): mixed-type manner

C[C@H](CC[C@@H](O[C@@H]1O[C@H](CO[C@@H]2O[C@H](CO)[C@@H](O)[C@H](O)[C@H]2O)[C@@H](O)[C@H](O)[C@H]1O)C(C)(C)O)[C@H]1CC[C@@]2(C)[C@@H]3CC=C4[C@@H](CC[C@H](O[C@@H]5O[C@H](CO)[C@@H](O)[C@H](O)[C@H]5O)C4(C)C)[C@]3(C)[C@H](O)C[C@]12C [mogroside III]
IC50 (maltase [11]): 1600 µM

C[C@H](CC[C@@H](O[C@@H]1O[C@H](CO)[C@@H](O)[C@H](O)[C@H]1O[C@@H]1O[C@H](CO)[C@@H](O)[C@H](O)[C@H]1O)C(C)(C)O)[C@H]1CC[C@@]2(C)[C@H]3CC=C4[C@@H](CC[C@H](O[C@@H]5O[C@H](CO[C@@H]6O[C@H](CO)[C@@H](O)[C@H](O)[C@H]6O)[C@@H](O)[C@H](O)[C@H]5O)C4(C)C)[C@]3(C)[C@H](O)C[C@]12C [mogroside IV]
IC50 (maltase [11]): 12000 µM

O=c1c(O)c(-c2ccc(O)c(O)c2)oc2cc(O)cc(O)c12 [quercetin, reference compound]
inhibition at 10 µM (maltase [1]): 56.3%
IC50 (sucrase [2]): 19 ± 2.53 µM
sucrase inhibition (sucrase [2]): 51.7%
Ki’ maltase (uncompetitive inhibition constant) (maltase [3]; Dixon plot): 14.97 ± 0.75 µM
mode of inhibition toward maltase (maltase [3]; maltose substrate): mixed-type inhibition; also recorded: mixed-competitive inhibitors
Ki (sucrase [4]): 14.05 ± 0.03 µM
mode of inhibition toward sucrase (sucrase [4]): mixed-type inhibition; also recorded: mixed-competitive inhibitors
IC50 (rat maltase [12]): 4800 ± 400 µM
IC50 (rat sucrose): 3500 ± 300 µM
mode of inhibition of α-glucosidase (α-glucosidase): mixed-competitive inhibitors

C[C@H](CC[C@@H](O[C@@H]1O[C@H](CO[C@@H]2O[C@H](CO)[C@@H](O)[C@H](O)[C@H]2O)[C@@H](O)[C@H](O)[C@H]1O[C@@H]1O[C@H](CO)[C@@H](O)[C@H](O)[C@H]1O)C(C)(C)O)[C@H]1CC[C@@]2(C)[C@@H]3CC=C4[C@@H](CC[C@H](O[C@@H]5O[C@H](CO)[C@@H](O)[C@H](O)[C@H]5O)C4(C)C)[C@]3(C)[C@H](O)C[C@]12C [siamenoside I]
IC50 (maltase [11]): 10000 µM

N[C@H]1C=C(CO)[C@@H](O)[C@H](O)[C@H]1O [valienamine]
mode of inhibition of sucrase (sucrase [13]; Lineweaver–Burk plot): competitive inhibitor
Ki (sucrase [13]; read-out: Ki sucrase calculated from a Dixon plot): 0.77 µM
